Laboratory results from ChEMBL document CHEMBL1201862, “PubChem BioAssay data set” (2004).
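Tested at 5 concentrations; 48 h exposure; 96-well plates; endpoints linearly interpolated, else capped at highest concentration. The concentration for 50% growth inhibition is given as GI50.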 Activity calls are given as the source filed them. Cut-off read from the data, not from the text of the source: active = GI50 up to about 1.1 µM and inactive = higher.

Columns and labels:
Assay in all cases: NCI anticancer screen, dose series, 48 h
A498 = tested on: A498
A549 = tested on: A549
CAKI-1 = tested on: CAKI-1
CCRF-CEM = tested on: CCRF-CEM
COLO 205 = tested on: COLO 205
DLD-1 = tested on: DLD-1
DMS-114 = tested on: DMS-114
DMS-273 = tested on: DMS-273
EKVX = tested on: EKVX
HCC 2998 = tested on: HCC 2998
HCT-116 = tested on: HCT-116
HCT-15 = tested on: HCT-15
HL-60 = tested on: HL-60
HOP-18 = tested on: HOP-18
HOP-62 = tested on: HOP-62
HOP-92 = tested on: HOP-92
HT-29 = tested on: HT-29
IGROV-1 = tested on: IGROV-1
K562 = tested on: K562
KM-20L2 = tested on: KM-20L2
KM12 = tested on: KM12
LOX IMVI = tested on: LOX IMVI
M19-MEL = tested on: M19-MEL
MCF7 = tested on: MCF7
MOLT-4 = tested on: MOLT-4
Malme-3M = tested on: Malme-3M
NCI-H226 = tested on: NCI-H226
NCI-H23 = tested on: NCI-H23
NCI-H460 = tested on: NCI-H460
NCI-H522 = tested on: NCI-H522
NCI/ADR-RES = tested on: NCI/ADR-RES
OVCAR-3 = tested on: OVCAR-3
OVCAR-4 = tested on: OVCAR-4
OVCAR-5 = tested on: OVCAR-5
OVCAR-8 = tested on: OVCAR-8
RPMI-8226 = tested on: RPMI-8226
RXF 393 = tested on: RXF 393
SF-268 = tested on: SF-268
SF-295 = tested on: SF-295
SF-539 = tested on: SF-539
SK-MEL-28 = tested on: SK-MEL-28
SK-MEL-2 = tested on: SK-MEL-2
SK-MEL-5 = tested on: SK-MEL-5
SK-OV-3 = tested on: SK-OV-3
SN12C = tested on: SN12C
SNB-19 = tested on: SNB-19
SNB-75 = tested on: SNB-75
SNB-78 = tested on: SNB-78
SW-620 = tested on: SW-620
U-251 = tested on: U-251
UACC-257 = tested on: UACC-257
UACC-62 = tested on: UACC-62
UO-31 = tested on: UO-31
XF498 = tested on: XF498
786-0 = tested on: 786-0
ACHN = tested on: ACHN
LXFL 529 = tested on: LXFL 529
M14 = tested on: M14
SR = tested on: SR
TK-10 = tested on: TK-10

With `C=C1C(=O)OCC2C(C(=O)O)=CC3C(C)C(C)=CC123` (stereo unspecified) the GI50 (A498) was 7.8 µM (inactive), the GI50 (A549) was 20.7 µM (inactive) and the GI50 (CAKI-1) was 19.6 µM (inactive). The GI50 (CCRF-CEM) was 7.74 µM (inactive), the GI50 (COLO 205) was 10.6 µM (inactive) and the GI50 (DLD-1) was 11 µM (inactive). The GI50 (DMS-114) was 7.69 µM (inactive), the GI50 (DMS-273) was 18.5 µM (inactive) and the GI50 (EKVX) was 21.7 µM (inactive). The GI50 (HCC 2998) was 10.2 µM (inactive), the GI50 (HCT-116) was 9.48 µM (inactive) and the GI50 (HCT-15) was 11 µM. For the same compound, the GI50 (HL-60) was 9.33 µM (inactive), the GI50 (HOP-18) was 12.2 µM (inactive) and the GI50 (HOP-62) was 12.2 µM (inactive). The GI50 (HOP-92) was 10.6 µM (inactive), the GI50 (HT-29) was 11.1 µM (inactive) and the GI50 (IGROV-1) was 11.9 µM (inactive). For the same compound, the GI50 (K562) was 10.2 µM (inactive), the GI50 (KM-20L2) was 11.9 µM (inactive) and the GI50 (KM12) was 9.93 µM (inactive). For the same compound, the GI50 (LOX IMVI) was 8.13 µM (inactive), the GI50 (M19-MEL) was 14.7 µM (inactive) and the GI50 (MCF7) was 8.13 µM (inactive). The GI50 (MOLT-4) was 7.82 µM (inactive), the GI50 (Malme-3M) was 7.33 µM (inactive) and the GI50 (NCI-H226) was 19.1 µM (inactive). For the same compound, the GI50 (NCI-H23) was 8.36 µM (inactive), the GI50 (NCI-H460) was 9.14 µM (inactive) and the GI50 (NCI-H522) was 2.31 µM (inactive). The GI50 (NCI/ADR-RES) was 8.26 µM (inactive), the GI50 (OVCAR-3) was 12.4 µM (inactive) and the GI50 (OVCAR-4) was 8.32 µM (inactive). The GI50 (OVCAR-5) was 27.5 µM (inactive), the GI50 (OVCAR-8) was 9.59 µM (inactive) and the GI50 (RPMI-8226) was 7.23 µM (inactive). The GI50 (RXF 393) was 7.4 µM (inactive), the GI50 (SF-268) was 9.46 µM (inactive) and the GI50 (SF-295) was 15 µM (inactive). The GI50 (SF-539) was 8.51 µM (inactive), the GI50 (SK-MEL-28) was 3.52 µM (inactive) and the GI50 (SK-MEL-2) was 7.21 µM (inactive). The GI50 (SK-MEL-5) was 9.31 µM (inactive), the GI50 (SK-OV-3) was 16.4 µM (inactive) and the GI50 (SN12C) was 8.73 µM (inactive). The GI50 (SNB-19) was 11.8 µM (inactive), the GI50 (SNB-75) was 13.9 µM (inactive) and the GI50 (SNB-78) was 14.8 µM (inactive). For the same compound, the GI50 (SW-620) was 9.31 µM (inactive), the GI50 (U-251) was 11 µM (inactive) and the GI50 (UACC-257) was 16.7 µM (inactive). For the same compound, the GI50 (UACC-62) was 5.41 µM (inactive), the GI50 (UO-31) was 14 µM (inactive) and the GI50 (XF498) was 12.5 µM (inactive).
With `C[C@]12CCC3c4ccc(OC(=O)c5ccccc5)cc4CC[C@H]3C1CC[C@@H]2OC(=O)C12OC1CCC2=O` (stereo partly specified) the GI50 (786-0) was 2.67 µM (inactive), the GI50 (A498) was 6.04 µM (inactive) and the GI50 (A549) was 5.64 µM (inactive). The GI50 (ACHN) was 5.27 µM (inactive), the GI50 (CCRF-CEM) was 0.959 µM (active) and the GI50 (COLO 205) was 2.84 µM (inactive). The GI50 (DLD-1) was 2.47 µM (inactive), the GI50 (DMS-114) was 2.6 µM (inactive) and the GI50 (DMS-273) was 5.01 µM (inactive). The GI50 (EKVX) was 6.61 µM (inactive), the GI50 (HCC 2998) was 23.7 µM (inactive) and the GI50 (HCT-116) was 3.03 µM (inactive). For the same compound, the GI50 (HCT-15) was 5.55 µM, the GI50 (HL-60) was 1.9 µM (inactive) and the GI50 (HOP-18) was 5.71 µM (inactive). For the same compound, the GI50 (HOP-62) was 6.21 µM (inactive), the GI50 (HOP-92) was 19.7 µM (inactive) and the GI50 (HT-29) was 3.34 µM (inactive). The GI50 (IGROV-1) was 4.63 µM (inactive), the GI50 (K562) was 2.07 µM (inactive) and the GI50 (KM-20L2) was 5.89 µM (inactive). For the same compound, the GI50 (KM12) was 6.93 µM (inactive), the GI50 (LOX IMVI) was 3.33 µM (inactive) and the GI50 (LXFL 529) was 1.91 µM (inactive). The GI50 (M14) was 5.79 µM (inactive), the GI50 (M19-MEL) was 5.96 µM (inactive) and the GI50 (MOLT-4) was 2.32 µM (inactive). The GI50 (Malme-3M) was 5.85 µM (inactive), the GI50 (NCI-H226) was 14.9 µM (inactive) and the GI50 (NCI-H23) was 4.73 µM (inactive). For the same compound, the GI50 (NCI-H460) was 4.26 µM (inactive), the GI50 (NCI-H522) was 2.31 µM (inactive) and the GI50 (OVCAR-3) was 3.13 µM (inactive). For the same compound, the GI50 (OVCAR-4) was 5.41 µM (inactive), the GI50 (OVCAR-5) was 8.38 µM (inactive) and the GI50 (OVCAR-8) was 4.53 µM (inactive). The GI50 (RPMI-8226) was 4.23 µM (inactive), the GI50 (RXF 393) was 2.41 µM (inactive) and the GI50 (SF-268) was 2.68 µM (inactive). The GI50 (SF-295) was 12.3 µM (inactive), the GI50 (SF-539) was 2.34 µM (inactive) and the GI50 (SK-MEL-28) was 6.11 µM (inactive). The GI50 (SK-MEL-2) was 7.94 µM (inactive), the GI50 (SK-MEL-5) was 4.69 µM (inactive) and the GI50 (SK-OV-3) was 15.8 µM (inactive). For the same compound, the GI50 (SN12C) was 5.9 µM (inactive), the GI50 (SNB-19) was 20.5 µM (inactive) and the GI50 (SNB-75) was 13.7 µM (inactive). The GI50 (SNB-78) was 6.34 µM (inactive), the GI50 (SR) was 3.31 µM (inactive) and the GI50 (SW-620) was 2.64 µM (inactive). The GI50 (TK-10) was 18.7 µM (inactive), the GI50 (U-251) was 2.8 µM (inactive) and the GI50 (UACC-257) was 5.81 µM (inactive). The GI50 (UACC-62) was 15.6 µM (inactive), the GI50 (UO-31) was 5.75 µM (inactive) and the GI50 (XF498) was 5.82 µM (inactive).
